Data on 25 compounds can be found in patent US10660877B2 (BRISTOL-MYERS SQUIBB COMPANY, priority 2016, dated 2020).

Like-named read-outs stand apart in the source and are kept apart here. A value given as a limit tells only on which side of the number the result lay.

The target in one assay is human TLR7 (Homo sapiens (Human), UniProt Q9NYK1). Kind of assay: TLR7 inhibition reporter assay (HEK-Blue cells, SEAP reporter, gardiquimod stimulation). It counts as cell-based. In general terms: A reporter such as luciferase makes a cellular process visible.
Chain of human TLR7 (Q9NYK1 27-1049): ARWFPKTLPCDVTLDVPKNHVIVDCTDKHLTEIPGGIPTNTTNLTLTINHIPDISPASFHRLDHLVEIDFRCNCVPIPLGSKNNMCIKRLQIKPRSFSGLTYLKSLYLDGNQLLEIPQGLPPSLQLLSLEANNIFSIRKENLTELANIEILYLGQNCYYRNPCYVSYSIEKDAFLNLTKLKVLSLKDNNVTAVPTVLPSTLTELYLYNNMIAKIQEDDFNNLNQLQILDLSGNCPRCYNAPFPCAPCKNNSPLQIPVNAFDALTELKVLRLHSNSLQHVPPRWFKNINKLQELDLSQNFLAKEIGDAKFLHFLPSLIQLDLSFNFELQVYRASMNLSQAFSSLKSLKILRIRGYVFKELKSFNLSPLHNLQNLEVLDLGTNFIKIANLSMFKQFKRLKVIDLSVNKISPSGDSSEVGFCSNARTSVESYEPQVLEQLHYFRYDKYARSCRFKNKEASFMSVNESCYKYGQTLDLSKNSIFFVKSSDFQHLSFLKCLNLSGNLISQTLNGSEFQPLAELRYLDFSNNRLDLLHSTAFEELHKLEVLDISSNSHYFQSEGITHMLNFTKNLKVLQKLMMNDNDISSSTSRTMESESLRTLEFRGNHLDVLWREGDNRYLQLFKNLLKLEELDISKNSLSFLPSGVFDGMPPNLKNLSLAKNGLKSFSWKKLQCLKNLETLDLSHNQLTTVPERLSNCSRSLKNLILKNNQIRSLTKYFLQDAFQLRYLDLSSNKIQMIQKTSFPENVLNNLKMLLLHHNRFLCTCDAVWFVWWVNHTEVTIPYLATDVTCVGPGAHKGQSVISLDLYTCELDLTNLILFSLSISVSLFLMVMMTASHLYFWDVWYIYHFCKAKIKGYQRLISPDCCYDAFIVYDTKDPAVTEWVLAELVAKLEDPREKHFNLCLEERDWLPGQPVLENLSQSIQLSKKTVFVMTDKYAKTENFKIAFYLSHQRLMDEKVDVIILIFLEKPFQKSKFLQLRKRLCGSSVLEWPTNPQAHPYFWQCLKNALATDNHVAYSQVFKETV
The target in a further assay is human TLR9 (Homo sapiens (Human), UniProt Q9NR96). Kind of assay: TLR9 inhibition reporter assay (HEK-Blue cells, SEAP reporter, ODN2006 stimulation).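 Also: compounds tested over 0.05 nM to 50 µM, 22 h incubation, inhibition taken as SEAP signal drop from agonist plus DMSO wells toward a known inhibitor control.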
Chain of human TLR9 (Q9NR96 26-1032): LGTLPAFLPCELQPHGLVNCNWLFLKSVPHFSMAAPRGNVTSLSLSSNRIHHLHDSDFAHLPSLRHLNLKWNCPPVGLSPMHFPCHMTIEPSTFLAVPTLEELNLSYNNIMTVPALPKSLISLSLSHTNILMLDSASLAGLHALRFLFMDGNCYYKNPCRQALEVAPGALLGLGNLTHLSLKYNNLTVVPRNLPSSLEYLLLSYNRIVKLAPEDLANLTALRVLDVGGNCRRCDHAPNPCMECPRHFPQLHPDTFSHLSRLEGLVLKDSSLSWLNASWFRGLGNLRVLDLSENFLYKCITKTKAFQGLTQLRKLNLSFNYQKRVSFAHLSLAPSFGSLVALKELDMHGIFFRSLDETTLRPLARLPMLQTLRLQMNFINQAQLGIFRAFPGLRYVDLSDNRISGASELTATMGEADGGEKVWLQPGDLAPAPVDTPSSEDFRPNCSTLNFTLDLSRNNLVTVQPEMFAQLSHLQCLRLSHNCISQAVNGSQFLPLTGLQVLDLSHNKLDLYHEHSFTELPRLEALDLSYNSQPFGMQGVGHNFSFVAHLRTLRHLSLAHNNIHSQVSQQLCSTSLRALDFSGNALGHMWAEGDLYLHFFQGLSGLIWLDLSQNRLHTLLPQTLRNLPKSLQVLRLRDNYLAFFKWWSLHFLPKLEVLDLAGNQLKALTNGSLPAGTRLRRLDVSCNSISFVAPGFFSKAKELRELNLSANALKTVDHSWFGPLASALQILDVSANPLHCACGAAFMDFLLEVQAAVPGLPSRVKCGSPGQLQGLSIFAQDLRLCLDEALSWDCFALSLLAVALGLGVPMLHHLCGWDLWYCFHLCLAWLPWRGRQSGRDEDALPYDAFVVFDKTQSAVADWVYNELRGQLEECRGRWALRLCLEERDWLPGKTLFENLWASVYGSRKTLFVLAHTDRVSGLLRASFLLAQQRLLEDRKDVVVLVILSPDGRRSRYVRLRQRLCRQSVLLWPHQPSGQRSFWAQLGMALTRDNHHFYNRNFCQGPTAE
The next assay has as its target human TLR8 (Homo sapiens (Human), UniProt Q9NR97). The assay can be described thus: TLR8 inhibition reporter assay (HEK-Blue cells, SEAP reporter, R848 stimulation).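 Also: compounds tested from 0.05 nM to 50 µM, 22 h at 37 °C, SEAP measured with HEK-Blue Detection, inhibition relative to agonist plus DMSO versus a known inhibitor.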
Setting [1] is: HEK-Blue cells overexpressing human TLR7, gardiquimod 7.5 μM.
[2] abbreviates: read-out: TLR9 IC50, HEK-Blue cells overexpressing human TLR9, ODN2006 5 nM.
The mark [3] stands for this setting: read-out: TLR8 IC50, HEK-Blue cells overexpressing human TLR8, R848 15.9 μM.
The mark [4] stands for this setting: HEK-Blue cells, gardiquimod 7.5 μM.
Where [5] appears, read: read-out: TLR9 IC50, HEK-Blue cells, ODN2006 5 nM.
Setting [6] is: read-out: TLR8 IC50, HEK-Blue cells, R848 15.9 μM.

Chain of human TLR8 (Q9NR97 27-1041): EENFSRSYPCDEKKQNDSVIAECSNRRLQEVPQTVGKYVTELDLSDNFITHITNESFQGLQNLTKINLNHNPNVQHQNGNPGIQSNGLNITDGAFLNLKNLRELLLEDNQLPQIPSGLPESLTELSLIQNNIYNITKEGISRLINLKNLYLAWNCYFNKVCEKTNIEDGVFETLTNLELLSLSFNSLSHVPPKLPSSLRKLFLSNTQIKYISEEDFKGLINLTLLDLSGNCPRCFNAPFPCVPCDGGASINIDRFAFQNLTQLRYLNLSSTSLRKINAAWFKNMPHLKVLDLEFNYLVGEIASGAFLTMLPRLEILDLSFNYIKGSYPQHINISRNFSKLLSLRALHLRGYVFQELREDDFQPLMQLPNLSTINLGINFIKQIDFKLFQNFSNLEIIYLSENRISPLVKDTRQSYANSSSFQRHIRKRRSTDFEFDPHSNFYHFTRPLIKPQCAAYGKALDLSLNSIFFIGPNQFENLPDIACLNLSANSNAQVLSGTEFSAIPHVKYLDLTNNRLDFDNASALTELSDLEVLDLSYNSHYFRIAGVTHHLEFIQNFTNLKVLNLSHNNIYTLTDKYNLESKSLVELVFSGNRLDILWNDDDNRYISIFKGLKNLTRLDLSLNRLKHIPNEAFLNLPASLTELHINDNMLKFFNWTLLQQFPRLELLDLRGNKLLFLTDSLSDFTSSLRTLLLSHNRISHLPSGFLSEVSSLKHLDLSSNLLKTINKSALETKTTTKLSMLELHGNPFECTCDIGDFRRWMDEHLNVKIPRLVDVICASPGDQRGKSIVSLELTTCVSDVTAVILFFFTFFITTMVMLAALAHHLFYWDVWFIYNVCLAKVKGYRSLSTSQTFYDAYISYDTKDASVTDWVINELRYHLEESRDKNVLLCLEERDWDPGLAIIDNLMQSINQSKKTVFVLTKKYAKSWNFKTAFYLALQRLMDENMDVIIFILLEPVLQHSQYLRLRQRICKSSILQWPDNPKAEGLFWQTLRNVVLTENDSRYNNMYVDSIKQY

Broadly, the IC50 is the point on the concentration scale where inhibition reaches its midpoint. As to `Cc1cc(-c2[nH]c3ccc(C4CCN(CC(=O)N(C)CCCO)CC4)cc3c2C(C)C)cc(C)n1` [Example 288, 2-(4-(2-(2,6-dimethylpyridin-4-yl)-3-isopropyl-1H-indol-5-yl)piperidin-1-yl)-N-(3-hydroxypropyl)-N-methylacetamide], the results for the IC50 at human TLR7 (setting [1]), at human TLR9 (setting [2]) and on human TLR8 (setting [3]) were 10 nM, 1470 nM and 34.6 nM, respectively.
For the compound `Cc1cc(-c2[nH]c3ccc(C4CCN(Cc5cnc[nH]5)CC4)cc3c2C(C)C)ccn1` [Example 820, 5-(1-((1H-imidazol-5-yl)methyl)piperidin-4-yl)-3-isopropyl-2-(2-methylpyridin-4-yl)-1H-indole], the IC50 against human TLR7 (setting [4]) was found to be 71.5 nM; at human TLR9 (setting [5]), 209 nM; at human TLR8 (setting [6]) it was 5.8 nM.
For `Cc1cc(-c2[nH]c3ccc(C4CCN(C(=O)C5CC(=O)N(C)C5)CC4)cc3c2C(C)C)cc(F)n1` (stereo not drawn) [Example 502, 4-(4-(2-(2-fluoro-6-methylpyridin-4-yl)-3-isopropyl-1H-indol-5-yl)piperidine-1-carbonyl)-1-methylpyrrolidin-2-one], the IC50 was 28.4 nM against human TLR7 (setting [1]), 24700 nM at human TLR9 (setting [2]) and 156 nM on human TLR8 (setting [3]).
Consider `Cc1cc(-c2[nH]c3ccc(C4CCN(CCC#N)CC4)cc3c2C(C)C)c(F)cn1` [Example 656, 3-(4-(2-(5-fluoro-2-methylpyridin-4-yl)-3-isopropyl-1H-indol-5-yl)piperidin-1-yl)propanenitrile], for which the IC50 on human TLR7 (setting [1]) is 9.3 nM; on human TLR9 (setting [2]), greater than 50000 nM; at human TLR8 (setting [3]), 1.9 nM.
With `CCOCCNCC(=O)N1CCC(c2ccc3[nH]c(-c4cc(C)nc(C)c4)c(C(C)C)c3c2)CC1` [Example 349, 1-(4-(2-(2,6-dimethylpyridin-4-yl)-3-isopropyl-1H-indol-5-yl)piperidin-1-yl)-2-((2-ethoxyethyl)amino)ethan-1-one], the 50% inhibitory concentration (IC50) at human TLR7 (setting [1]) is 5.2 nM; on human TLR9 (setting [2]) it was 1360 nM; at human TLR8 (setting [3]), 21.9 nM.
On the same counts, the results for `Cc1cc(-c2[nH]c3ccc(C4CCNCC4)cc3c2C(C)(C)C)ccn1` [Example 86, 3-(tert-butyl)-2-(2-methylpyridin-4-yl)-5-(piperidin-4-yl)-1H-indole] are 23600 nM, 2550 nM and greater than 50000 nM.
The corresponding values for `Cc1cc(-c2[nH]c3ccc(C4CCN(CC(=O)N5CCC(F)(F)CC5)CC4)cc3c2C(C)C)cc(C)n1` [Example 257, 1-(4,4-difluoropiperidin-1-yl)-2-(4-(2-(2,6-dimethylpyridin-4-yl)-3-isopropyl-1H-indol-5-yl)piperidin-1-yl)ethan-1-one] are 9.8 nM, 607 nM and 13.8 nM.
Take `Cc1cc(-c2[nH]c3ccc(C4CCNCC4(F)F)cc3c2C(C)C)cc(C)n1` (single isomer, unassigned) [Example 489A, 5-(3,3-difluoropiperidin-4-yl)-2-(2,6-dimethylpyridin-4-yl)-3-isopropyl-1H-indole]: the IC50 worked out at 1.1 nM at human TLR7 (setting [1]); 849 nM at human TLR9 (TLR9 IC50, HEK-Blue cells overexpressing human TLR9, ODN2006 5 nM); 13.9 nM on human TLR8 (TLR8 IC50, HEK-Blue cells overexpressing human TLR8, R848 15.9 μM).
For the compound `Cc1cc(-c2[nH]c3ccc(C4CCN(C(=O)CN5C[C@@H](C(F)(F)F)C[C@H]5CO)CC4)cc3c2C(C)C)cc(C)n1` [Example 394, 1-(4-(2-(2,6-dimethylpyridin-4-yl)-3-isopropyl-1H-indol-5-yl)piperidin-1-yl)-2-((2S,4S)-2-(hydroxymethyl)-4-(trifluoromethyl)pyrrolidin-1-yl)ethan-1-one], the IC50 at human TLR7 (setting [1]) turned out to be 14.6 nM; on human TLR9 (setting [2]) it was 833 nM; at human TLR8 (setting [3]), 152 nM.
Take `Cc1cc(-c2[nH]c3ccc(C4CCN(C(=O)C5(O)CC5)CC4)cc3c2C(C)C)cc(C)n1` [Example 107, (4-(2-(2,6-dimethylpyridin-4-yl)-3-isopropyl-1H-indol-5-yl)piperidin-1-yl)(1-hydroxycyclopropyl)methanone]: the IC50 at human TLR7 (setting [1]) is 14.6 nM; at human TLR9 (setting [2]), 13400 nM; at human TLR8 (setting [3]), 28.4 nM.
The corresponding values for `COCCN1CCC(c2ccc3[nH]c(-c4cc(C)nc(C)c4)c(C(C)C)c3c2)CC1` [Example 325, 2-(2,6-dimethylpyridin-4-yl)-3-isopropyl-5-(1-(2-methoxyethyl)piperidin-4-yl)-1H-indole] are 3.1 nM, 343 nM and 3.8 nM.
In the case of `Cc1cc(-c2[nH]c3ccc(C4CCN(CC5CCNC5)CC4)cc3c2C(C)C)cc(C)n1` (stereo not drawn) [Example 466, 2-(2,6-dimethylpyridin-4-yl)-3-isopropyl-5-(1-(pyrrolidin-3-ylmethyl)piperidin-4-yl)-1H-indole], the IC50 on human TLR7 (setting [1]) came to 6.5 nM; at human TLR9 (setting [2]) it was 273 nM; on human TLR8 (setting [3]), 3.7 nM.
Regarding `COC[C@@H]1CCCN1C(=O)CN1CCC(c2ccc3[nH]c(-c4cc(C)nc(C)c4)c(C(C)C)c3c2)CC1` [Example 263, (S)-2-(4-(2-(2,6-dimethylpyridin-4-yl)-3-isopropyl-1H-indol-5-yl)piperidin-1-yl)-1-(2-(methoxymethyl)pyrrolidin-1-yl)ethan-1-one], the values for the IC50 against human TLR7 (setting [1]), at human TLR9 (setting [2]) and on human TLR8 (setting [3]) were 3.7 nM, 279 nM and 13.6 nM, respectively.
Turning to `Cc1cc(-c2[nH]c3ccc(C4CCN(C(=O)CN(C)Cc5cc(C)on5)CC4)cc3c2C(C)C)cc(C)n1` [Example 417, 1-(4-(2-(2,6-dimethylpyridin-4-yl)-3-isopropyl-1H-indol-5-yl)piperidin-1-yl)-2-(methyl((5-methylisoxazol-3-yl)methyl)amino)ethan-1-one], the IC50 is 10.3 nM against human TLR7 (setting [1]), 9380 nM at human TLR9 (setting [2]) and 72.3 nM at human TLR8 (setting [3]).
On to `Cc1cc(-c2[nH]c3ccc(C4CCN(C(=O)C5CCNC5)CC4)cc3c2C(C)C)ccn1` (stereo not drawn) [Example 572, (4-(3-isopropyl-2-(2-methylpyridin-4-yl)-1H-indol-5-yl)piperidin-1-yl)(pyrrolidin-3-yl)methanone], for which the IC50 stood at 5.1 nM on human TLR7 (setting [1]), 692 nM on human TLR9 (setting [2]) and 18.6 nM on human TLR8 (setting [3]).
On the same counts, the results for `Cc1cc(-c2[nH]c3ccc(C4CCN(C(=O)CN5CCC[C@H]5CO)CC4)cc3c2C(C)C)cc(C)n1` [Example 381, (S)-1-(4-(2-(2,6-dimethylpyridin-4-yl)-3-isopropyl-1H-indol-5-yl)piperidin-1-yl)-2-(2-(hydroxymethyl)pyrrolidin-1-yl)ethan-1-one] are 2.2 nM, 348 nM and 9.8 nM.
The corresponding values for `CCCN1CCC(c2ccc3[nH]c(-c4cc(C)nc(C)c4)c(C(C)C)c3c2)CC1` [Example 323, 2-(2,6-dimethylpyridin-4-yl)-3-isopropyl-5-(1-propylpiperidin-4-yl)-1H-indole] are 1.4 nM, 359 nM and 3.9 nM.
On to `Cc1cc(-c2[nH]c3ccc(C4CCN(CC5(C)COC5)CC4)cc3c2C(C)C)cc(C)n1` [Example 475, 2-(2,6-dimethylpyridin-4-yl)-3-isopropyl-5-(1-((3-methyloxetan-3-yl)methyl)piperidin-4-yl)-1H-indole], for which the IC50 against human TLR7 (setting [1]) was determined as 4.1 nM; at human TLR9 (setting [2]), 335 nM; on human TLR8 (setting [3]), 2.2 nM.
The corresponding values for `Cc1cc(-c2[nH]c3ccc(C4CCN(C(=O)CN(C)C5CCS(=O)(=O)C5)CC4)cc3c2C(C)C)cc(C)n1` (stereo not drawn) [Example 147, 1-(4-(2-(2,6-dimethylpyridin-4-yl)-3-isopropyl-1H-indol-5-yl)piperidin-1-yl)-2-((1,1-dioxidotetrahydrothiophen-3-yl)(methyl)amino)ethan-1-one] are 6.7 nM, 3840 nM and 42.3 nM.
In the case of `Cc1cc(-c2[nH]c3ccc(C4CCNCC4)cc3c2C(C)C)ccn1` [Example 5, 3-isopropyl-2-(2-methylpyridin-4-yl)-5-(piperidin-4-yl)-1H-indole], the IC50 at human TLR7 (setting [1]) was 6.1 nM; at human TLR9 (setting [2]) it was 946 nM; on human TLR8 (setting [3]), 3.9 nM.
The corresponding values for `CCc1c(-c2ccnc(C#N)c2)[nH]c2ccc(C3CCNCC3)cc12` [Example 64, 4-(3-ethyl-5-(piperidin-4-yl)-1H-indol-2-yl)picolinonitrile] are 95.6 nM, 895 nM and 61.8 nM.
The corresponding values for `Cc1cc(-c2[nH]c3ccc(C4CCN(C(=O)CN5CCCCC5C)CC4)cc3c2C(C)C)cc(C)n1` (stereo not drawn) [Example 377, 1-(4-(2-(2,6-dimethylpyridin-4-yl)-3-isopropyl-1H-indol-5-yl)piperidin-1-yl)-2-(2-methylpiperidin-1-yl)ethan-1-one] are 4.4 nM, 514 nM and 17.5 nM.
As for `Cc1cc(-c2[nH]c3ccc(C4CCN(C5CCN(CC(C)C)CC5)CC4)cc3c2C)ccn1` [Example 810, 5-(1′-isobutyl-[1,4′-bipiperidin]-4-yl)-3-methyl-2-(2-methylpyridin-4-yl)-1H-indole], the IC50 turned out to be 145 nM on human TLR7 (setting [4]), 19 nM on human TLR9 (setting [5]) and 16.2 nM at human TLR8 (setting [6]).
Regarding `CNC(=O)CN1CCC(c2ccc3[nH]c(-c4cc(C)ncc4F)c(C(C)C)c3c2)CC1` [Example 654, 2-(4-(2-(5-fluoro-2-methylpyridin-4-yl)-3-isopropyl-1H-indol-5-yl)piperidin-1-yl)-N-methylacetamide], the IC50 against human TLR7 (setting [1]) was determined as 2.8 nM; at human TLR9 (setting [2]) it was 3140 nM; at human TLR8 (setting [3]), 3.2 nM.
With `Cc1cc(-c2[nH]c3ccc(C4CCN(CC(O)C(F)(F)F)CC4)cc3c2C(C)C)cc(C)n1` (stereo not drawn) [Example 317, 3-(4-(2-(2,6-dimethylpyridin-4-yl)-3-isopropyl-1H-indol-5-yl)piperidin-1-yl)-1,1-trifluoropropan-2-ol], the IC50 at human TLR7 (setting [1]) turned out to be 13.7 nM; on human TLR9 (setting [2]), 1120 nM; on human TLR8 (setting [3]) it was 13.2 nM.
